The test system of assay [1] is OCI-AML2 cells. In words: Western blot of SF3B1, Mcl-1S and Mcl-1L protein expression. Format: cell-based, human. On the procedure: Cells were plated at 2.5×10^5 cells per ml in 6-well plates and treated with drug, vehicle or siRNA at the indicated doses and time points. Cells were harvested, washed with PBS and lysed prior to preparation of protein extracts for western blotting.
More particularly, cells were lysed with RIPA buffer (#R0278, Sigma, St. Louis, Mo., United States of America) containing phosphatase inhibitor cocktails 2 and 3 (Sigma #P5726, #P0044) and protease inhibitor cocktail (#P8340, Sigma, St. Louis, Mo., United States of America). Protein was quantified using a bicinchoninic acid (BCA) protein assay kit (#23225, Pierce, Waltham, Mass., United States of America). Samples were resolved on a Bolt 4-12% SDS-PAGE gel (#NW00082, ThermoFisher Scientific, Waltham, Mass., United States of America) and transferred to PVDF membrane (#170-4274, Bio-Rad Laboratories, Hercules, Calif., United States of America). Antibodies were obtained from Cell Signaling Technology (Danvers, Mass., United States of America) unless indicated otherwise. Primary antibodies used were: Mcl-1 (#5453, RRID #AB 10694494), SF3B1 (#14434, RRID #AB 2798479), β-actin (#3700, RRID #AB_2242334) and AC (BD Biosciences #612302 (San Jose, California, United States of America), RRID #AB_399617). Secondary antibodies used were HRP-linked goat anti-mouse (#7076, RRID #AB_330924) or goat anti-rabbit IgG (#7074, RRID # AB_2099233). Clarity Max Western ECL Substrate (#1705062, Bio-Rad Laboratories, Hercules, Calif., United States of America) was added to visualize relative protein expression by chemiluminescence using the Bio-Rad ChemiDoc MP imaging system (Bio-Rad Laboratories, Hercules, Calif., United States of America). Quantification was done using Bio-Rad ImageLab 6.0.1 software (Bio-Rad Laboratories, Hercules, Calif., United States of America). For quantification, bands were normalized to β-actin as a loading control.
On the technique in general: A western blot detects proteins with antibodies after separation by electrophoresis.

Assay [2] has as its system hAML cell lines. The assay is described as follows: Venetoclax sensitivity of hAML cell lines. The assay is classed as cell-based, human. The following applies: sensitive (MV4-11, MOLM-13, OCL-AML2) vs resistant (MM-6, THP-1, HL-60/VCR, OCI-AML3).
Protocol: Venetoclax sensitive cell lines can be co-treated with SACLAC (0.3 to 2.5 μM) and venetoclax (1 to 32 nM). […] Cell viability can be determined by MTS assay 24 hours after treatment. CompuSyn software (ComboSyn Inc., Paramus, N.J., United States of America) can be used to determine synergy. A combination index (CI) of >1, 1, and <1 indicates antagonism, additive effect, and synergism, respectively, with increasing synergism indicated by values approaching zero.
The target of assay [3] is T1, acid ceramidase (AC) (Homo sapiens, UniProt Q13510).
T1 construct: endogenous in cells; host or cells: HL-60/VCR, THP-1 and OCI-AML2 human AML cell lines
T1 sequence (Q13510 143-395 limits assumed): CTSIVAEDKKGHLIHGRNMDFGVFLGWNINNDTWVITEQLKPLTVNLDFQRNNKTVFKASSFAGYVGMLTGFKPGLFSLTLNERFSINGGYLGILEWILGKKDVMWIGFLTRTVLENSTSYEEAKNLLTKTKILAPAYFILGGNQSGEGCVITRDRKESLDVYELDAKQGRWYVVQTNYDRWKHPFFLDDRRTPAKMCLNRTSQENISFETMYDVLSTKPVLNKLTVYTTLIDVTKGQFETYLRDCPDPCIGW
T1 sequence (Q13510 22-142 limits assumed): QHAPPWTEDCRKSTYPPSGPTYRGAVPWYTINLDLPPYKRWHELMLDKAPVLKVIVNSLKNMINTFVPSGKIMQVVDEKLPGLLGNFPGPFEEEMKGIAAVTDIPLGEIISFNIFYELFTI
In words: Acid ceramidase activity assay (RBM14C12 fluorogenic substrate) in human AML cell lines. Format: cell-based. Conditions: LCL204 5 or 10 μM vs SACLAC 1.25 or 2.5 μM; HL-60/VCR, THP-1, OCI-AML2. On the procedure:
Cells were seeded at 2×10^4 cells per well in 50 μl Acid ceramidase activity was measured at 24 hours using the RBM14C12 fluorogenic substrate as previously described (22,34).

The structures appear in SMILES notation. Where only a bound is given, the exact number is not on record here.

On to `CO[C@]1(C)C[C@@]2(CO2)[C@H](O)[C@@H](/C=C/C(C)=C/C[C@@H]2O[C@H](C)[C@H](NC(=O)/C=C\[C@H](C)OC(C)=O)C[C@@H]2C)O1` [Spliceostatin A, reference compound], for which, in assay [1] (5, 10 or 20 nM, 6 hours), the Mcl-1S protein result is on record as “dose-dependent increase”.

Regarding `CC1(C)CCC(CN2CCN(c3ccc(C(=O)NS(=O)(=O)c4ccc(NCC5CCOCC5)c([N+](=O)[O-])c4)c(Oc4cnc5[nH]ccc5c4)c3)CC2)=C(c2ccc(Cl)cc2)C1` [Venetoclax], in assay [2], the “difference in sensitivity between venetoclax sensitive and resistant cell lines” value is recorded as greater than 100 fold.

Take `CN(C)CC[C@H](CSc1ccccc1)Nc1ccc(S(=O)(=O)NC(=O)c2ccc(N3CCN(Cc4ccccc4-c4ccc(Cl)cc4)CC3)cc2)cc1[N+](=O)[O-]` [ABT-737, 4-[4-[[2-(4-chlorophenyl)phenyl]methyl]piperazin-l-yl]-N-[4-[[(2R)-4-(dimethylamino)-1-phenylsulfanylbutan-2-yl]amino]-3-nitrophenyl]sulfonylbenzamide, reference compound]: the “Mcl-1 cleavage fragment (caspase-mediated)” value in assay [1] (ABT-737 75 nM, 24 hours, abrogated by Z-VAD-FMK 50 μM) is listed as “smaller fragment of approximately 22 kDa”.

On to `CCCCCCCCCCCCC/C=C/[C@@H](O)[C@H](CO)NC(=O)CCCCCCCCCCCCCCC` [C16 ceramide, reference compound], for which, in assay [1] (C16 ceramide 20 μM, 48 hours), the SF3B1 protein result is given as “reduction” and the “ratio of Mcl-1S to Mcl-1L” value is given as “increase”.

Regarding `CCCCCCCCCCCCCCN[C@H](CO)[C@H](O)c1ccc([N+](=O)[O-])cc1` [LCL204, (1R, 2R)-2-N-(tetradecylamino)-1-(4′-nitrophenyl)-1,3-propandiol, reference compound], in assay [3], the “dose required to achieve similar AC inhibition as SACLAC” value is on record as “four-fold higher dose”.

(Values after patent publication US20220387358A1, “CERAMIDE ANALOG SACLAC MODULATES SPHINGOLIPID LEVELS AND MCL-1 SPLICING TO INDUCE APOPTOSIS IN ACUTE MYELOID LEUKEMIA” (University of Virginia Patent Foundation, priority 2019, published 2022).)
